Earlier results as cited in US20240197632A1 (VETERINARY PHARMACY CORPORATION, priority 2022, published 2024).

For `CC(C)Cc1ccc(C(C)C(=O)O)cc1` (stereo not shown) [Ibuprofen, 2-(4-Isobutylphenyl)propanoic acid], the “general solubility property in water” value is given as 0.0021 % wt/vol.
